Data: patent US10053485B2, “Cytotoxic agents that preferentially target leukemia inhibitory factor (LIF) for the treatment of malignancies and as new contraceptive agents” (Evestra, Inc., priority 2015, dated 2018)

Columns and labels:
[1] = system: OVCAR-4; assay: NCI-60 screen, Ovarian Cancer panel; assay type: cell-based; conditions: Homo sapiens, OVCAR-4, 48 h
[2] = system: HL-60(TB); assay: NCI-60 screen, Leukemia panel; assay type: cell-based; conditions: Homo sapiens, HL-60, 48 h
[3] = system: SK-OV-3; assay: NCI-60 screen, Ovarian Cancer panel; assay type: cell-based; conditions: Homo sapiens, SK-OV-3, 48 h
[4] = system: MOLT-4; assay: NCI-60 screen, Leukemia panel; assay type: cell-based; conditions: Homo sapiens, MOLT-4, 48 h
[5] = system: SF-268; assay: NCI-60 screen, CNS Cancer panel; assay type: cell-based; conditions: Homo sapiens, SF-268, 48 h
[6] = system: CAKI-1; assay: NCI-60 screen, Renal Cancer panel; assay type: cell-based; conditions: Homo sapiens, CAKI-1, 48 h
[7] = system: UO-31; assay: NCI-60 screen, Renal Cancer panel; assay type: cell-based; conditions: Homo sapiens, UO-31, 48 h
[8] = system: KM12; assay: NCI-60 screen, Colon Cancer panel; assay type: cell-based; conditions: Homo sapiens, KM12, 48 h
[9] = system: UACC-257; assay: NCI-60 screen, Melanoma panel; assay type: cell-based; conditions: Homo sapiens, UACC-257, 48 h
[10] = system: PC-3; assay: NCI-60 screen, Prostate Cancer panel; assay type: cell-based; conditions: Homo sapiens, PC-3, 48 h
[11] = system: RPMI-8226; assay: NCI-60 screen, Leukemia panel; assay type: cell-based; conditions: Homo sapiens, RPMI-8226, 48 h
[12] = system: SK-MEL-5; assay: NCI-60 screen, Melanoma panel; assay type: cell-based; conditions: Homo sapiens, SK-MEL-5, 48 h
[13] = system: HT29; assay: NCI-60 screen, Colon Cancer panel; assay type: cell-based; conditions: Homo sapiens, HT-29, 48 h
[14] = system: IGROV1 (Ovarian) Xenograft; assay: Tumor xenograft study, IGROV1; assay type: in vivo, mice
Procedure: Uniform suspensions of human breast cancer MDA-MB-231 and human ovarian cancer IGROV1 cells (2×10^6) in 100 μL (0.02 carboxymethyl cellulose in phosphate buffered saline) were injected subcutaneously into the right and left flanks of 4- to 5-week-old female athymic nude mice (Charles River Laboratories). After 10 days, when the tumor […] reaches 100 mm^3, the mice were randomly allocated to 3 groups of each containing 6 animals. […] All drug was suspended in PBS followed by sonication (15 seconds with an intermittent interval of 5 seconds) for 1 minute. Tumors were allowed to reach palpability before drug intervention. Tumor size was measured every 3 days using digital Vernier Calipers and tumor volume was calculated using the ellipsoid formula [D×(d2)]/2, where D is the large diameter of the tumor and d represents the small diameter. On day 31, the mice were euthanized and tumors were harvested for protein and gene expression studies. […] FIG. 6B depicts a graph of tumor volume vs. time for the administration of EC300 at 2.5 mg/kg twice weekly in the MDA-MB-231 (TNBC) Xenograft. […] FIG. 7 depicts a graph of tumor volume vs. time for the administration of EC300 at 5 mg/kg 5 days per week in the IGROV1 (Ovarian) Xenograft. […] STAT3 phosphorylation is reduced in tumors that underwent treatment compared to control which is an indication of LIF downstream target.

[15] = system: NCI-H522; assay: NCI-60 screen, Non-Small Cell Lung Cancer panel; assay type: cell-based; conditions: Homo sapiens, NCI-H522, 48 h
[16] = system: HOP-62; assay: NCI-60 screen, Non-Small Cell Lung Cancer panel; assay type: cell-based; conditions: Homo sapiens, HOP-62, 48 h, read-out: GI50 (log10GI50) (converted)
[17] = system: T47D (ER+ PR+ Breast Cancer); assay: Short term (72 h) cytotoxicity assay; assay type: cell-based; conditions: Homo sapiens
[18] = system: SN12C; assay: NCI-60 screen, Renal Cancer panel; assay type: cell-based; conditions: Homo sapiens, 48 h
[19] = system: A549 (Lung cancer); assay: Short term (72 h) cytotoxicity assay; assay type: cell-based, human; conditions: Homo sapiens; A549, 72 h cytotoxicity
[20] = system: MALME-3M; assay: NCI-60 screen, Melanoma panel; assay type: cell-based; conditions: Homo sapiens, 48 h
[21] = system: MCF7; assay: NCI-60 screen, Breast Cancer panel; assay type: cell-based; conditions: Homo sapiens, MCF7, 48 h
[22] = system: SNB-19; assay: NCI-60 screen, CNS Cancer panel; assay type: cell-based; conditions: Homo sapiens, SNB-19, 48 h
[23] = system: NCI-H23; assay: NCI-60 screen, Non-Small Cell Lung Cancer panel; assay type: cell-based; conditions: Homo sapiens, NCI-H23, 48 h
[24] = system: LOX IMVI; assay: NCI-60 screen, Melanoma panel; assay type: cell-based; conditions: Homo sapiens, 48 h
[25] = read-out: GI50 (log10GI50) (converted)
[26] = read-out: LC50 (log10LC50) (converted)

SMILES: C#CC(F)(F)[C@]1(O)CCC2C3CCC4=CC(=O)CCC4=C3C(c3ccc(C4CC4)cc3)C[C@@]21C (stereo partly drawn) [EC330, 17α-(1,1-difluoro-2-propyn-1-yl)-17β-hydroxy-11β-[4-p-(cyclopropyl)phenyl]estra-4,9-dien-3-one]
- GI50 [1, 25]: 3.89 µM
- CC50 [1, 26]: > 100 µM
- GI50 [2, 25]: < 0.01 µM
- CC50 [2, 26]: < 0.01 µM
- GI50 [3, 25]: 0.117 µM
- CC50 [3, 26]: 0.661 µM
- GI50 [4, 25]: 1.7 µM
- CC50 [4, 26]: > 100 µM
- GI50 [5, 25]: 0.126 µM
- CC50 [5, 26]: 1.55 µM
- GI50 [6, 25]: 0.0295 µM
- CC50 [6, 26]: > 100 µM
- GI50 [7, 25]: < 0.01 µM
- CC50 [7, 26]: < 0.01 µM
- GI50 [8, 25]: < 0.01 µM
- CC50 [8, 26]: 44.7 µM
- GI50 [9, 25]: 7.08 µM
- CC50 [9, 26]: > 100 µM
- GI50 [10, 25]: 0.513 µM
- CC50 [10, 26]: > 100 µM
- GI50 [11, 25]: 0.112 µM
- CC50 [11, 26]: > 100 µM
- GI50 [12, 25]: 4.68 µM
- CC50 [12, 26]: 43.7 µM
- GI50 [13, 25]: < 0.01 µM
- CC50 [13, 26]: 0.692 µM
- antitumor activity ([14]; 5 mg/kg (5 days per week), 4 weeks, intraperitoneally): potent antitumor activity
- apoptosis in xenograft tumors ([14]; IGR-OV1 xenograft tumors, FIG. 8): induced apoptosis dose dependently
- tumor growth ([14]; ovarian cancer model): significantly reduced
- STAT3 phosphorylation in tumors ([14]; treated vs. control): reduced
- GI50 [15, 25]: < 0.01 µM
- CC50 [15, 26]: < 0.01 µM
- GI50 [16]: 0.0141 µM
- IC50 [17]: 0.08 µM
- GI50 [18, 25]: 3.8 µM
- CC50 [18, 26]: > 100 µM
- IC50 [19]: 0.025 µM
- GI50 [20, 25]: < 0.01 µM
- CC50 [20, 26]: 0.0813 µM
- GI50 [21, 25]: 1.23 µM
- CC50 [21, 26]: > 100 µM
- GI50 [22, 25]: 3.8 µM
- CC50 [22, 26]: > 100 µM
- GI50 [23, 25]: < 0.01 µM
- CC50 [23, 26]: > 100 µM
- GI50 [24, 25]: < 0.01 µM
- CC50 [24, 26]: < 0.01 µM
